Measurements: US20250320556A1, “METHODS AND RELATED ASPECTS FOR DIGITAL MULTI-TEMPERATURE FLUOROMETRIC DETECTION” (THE JOHNS HOPKINS UNIVERSITY, priority 2024, published 2025)

What was measured:
H23 cell line = assay: Hypomethylating drug treatment of H23 cells, methylation read out by 15-plex FLAP-Melt; assay type: cell-based, human; settings: 500 nM, course of 7 days
Protocol: (§1) FIGS. 24A-24D. Methylation analysis in Aza-treated cell lines. Normalized methylation levels in untreated and 500 nM Aza-treated cells for H23 (A) and H520 (B) cell lines. Relative methylation changes in Aza-treated cells, normalized to untreated controls, are shown as clustered bar plots. Each cluster represents a loci from the 15-plex panel, with bars indicating different time points. (C) H23 cell line. (D) H520 cell line.
(§2) A notable application of digital PCR-based cfDNA tests is longitudinal disease progression monitoring over and after a course of treatment due to the quantification capability of the technology. Next, we sought to evaluate the performance of our assay in detecting multiple methylation biomarkers in real biological samples with a focus on the ability of our assay to quantify methylation level changes. We started with two cancer cell lines, H23 and H520, derived from lung tissues of NSCLC patients. To replicate a typical treatment monitoring scenario, we conducted hypomethylating drug treatment on the cell lines using 5-Azacytidine (5-Aza), a drug that can irreversibly bind to DNA methyltransferase after being incorporated into DNA and inhibits its activity. H520 and H23 were treated with 5-Aza at 500 nM over a course of 5 and 7 days, respectively. […]

H520 cell line = assay: Hypomethylating drug treatment of H520 cells, methylation read out by 15-plex FLAP-Melt; assay type: cell-based, human; settings: 500 nM, course of 5 days
Protocol: as §1, §2

Nc1ncn([C@@H]2O[C@H](CO)[C@@H](O)[C@H]2O)c(=O)n1 [5-Aza, 5-Azacytidine]
confluency rate of treated cells compared with untreated cells (H23 cell line): much lower
methylation level of targets (15-plex panel) in treated cells (H23 cell line; vs untreated cells, majority of the targets): decreasing trend
confluency rate of treated cells compared with untreated cells (H520 cell line): much lower
methylation levels of targets (15-plex panel) in treated cells (H520 cell line; vs untreated cells): decreased overtime
